Values of other authors, collected in US20250262254A1, “THERAPEUTIC COMPOSITIONS AND METHODS OF USING SEROTONIN MODULATING MICROBIOME-BASED INTERVENTIONS TO TREAT SEROTONIN-RELATED DISEASES OR DISORDERS” (HOLOBIOME, INC, priority 2019, published 2025).

System: mouse model
Details: microbiota-derived tryptamine

NCCc1c[nH]c2ccccc12 [tryptamine]
GI transit: accelerate GI transit
